In patent US9821072B2, “Activated neurotensin molecules and the uses thereof” (priority 2014, dated 2017):

Tests used:
[1] = test system: NMRI mice with yeast-induced hyperthermia; experiment: Antipyretic effect in yeast-induced hyperthermia in NMRI mice; assay type: in vivo, mouse
Method: In addition to eliciting a strong hypothermic effect when injected intravenously in naïve mice, we assessed the antipyretic effect of activated NT drugs of the invention in mice with yeast-induced hyperthermia. Briefly, rectal temperature of male NMRI mice was first measured 14 hours before the test using a rectal probe (Baseline 1, two independent measurements at a minimum of 5 min interval). Mice were then injected subcutaneously with either a yeast suspension (512 mg/kg), to induce a hyperthermic response, or hydroxypropylmethylcellulose (HPMC) in saline 0.9%. Fourteen hours later, rectal temperature of the mice was measured again (Baseline 2, two independent measurements at a minimum of 5 min interval) in order to assess the effect of yeast or HPMC injection on baseline temperature.

Swiss (CD-1) mice = experiment: Hypothermic response upon four daily i.v. administrations in Swiss (CD-1) mice; assay type: in vivo, mouse; settings: 4 mg/kg eq. NT daily i.v.
Method: In order to determine the hypothermic responsiveness of mice upon repeated administrations of activated NT of the invention, Swiss (CD-1) mice were challenged to four daily intravenous (bolus) administrations of compound XIV at 4 mg/kg eq. NT. Rectal body temperature was monitored each day during 3 hours post-injection.

[2] = test system: FVB/N mice with KA-induced status epilepticus; experiment: Kainic acid-induced status epilepticus model (body temperature, seizures, neurodegeneration, neuroinflammation, mossy fiber sprouting); assay type: in vivo, mouse
Source text: In the present case, excitotoxicity was induced by subcutaneous (s.c.) injection of kainic acid (KA), a pro-convulsant agent known to induce a status epilepticus (SE) with excitotoxicity, neuroinflammation, and severe neuronal damage in the hippocampus that can be observed 3 to 7 days after KA administration, and with aberrant axonal sprouting of the dentate gyrus mossy fibers that can be observed at 7-8 weeks after KA administration. We tested the effect of compound XIV on i) epileptic activity (persistence of recurrent seizures), ii) neurodegeneration, neuroinflammation and the resulting brain tissue damage and iii) aberrant axonal sprouting of the dentate gyrus mossy fibers.
FVB/N adult male mice were injected with a single dose of KA (40-45 mg/kg s.c.) to generate mice with spontaneous recurrent seizures as a hallmark of SE. A negative control group of mice were administered saline 0.9% instead of KA and no further treatment (“SHAM”, n=5). Thirty minutes after the onset of SE, mice received either an intravenous (tail vein) bolus injection of compound XIV at the dose of 4 mg/kg eq. NT (treatment group “SE+HT”, n=5) or saline 0.9% (group “SE”, n=5), or a high dose of diazepam (DZP) at 15 mg/kg), a potent anti-convulsive and anti-epileptic drug (positive control group “SE+DZP”). Body temperature was monitored before KA injection and then every 15 min during 6 hours thereafter, using a rectal probe. During this period, mice were assessed for the occurrence and severity of motor seizures. One week later, animals were sacrificed for histological assessment of neuronal cell death on coronal sections, the hippocampal formation being the main structure in the brain showing tissue damage in this model of excitotoxicity. Another group of animals with the same treatments was sacrificed 8 weeks for histological assessment of aberrant axonal sprouting of the dentate gyrus mossy fibers.
Administration of KA (40-45 mg/kg; s.c.) caused characteristic sequential behavioral changes. Immediately after being injected, all animals developed immobility (stage 1). Within 30 minutes after KA injection, automatisms with head nodding, forelimb clonus and circling behavior (stages 2-3) were observed. Then most animals progressed to intermittent (stage 4) followed by continuous (stage 5) rearing with forelimb clonus and falling behavior. […] Only animals attaining at least Racine stage 5 seizures were included in the study. The SE occurred around 2 hours after KA injection, was characterized by stage 5-6 seizures and often associated with hyperthermia (FIG. 13A). Compound XIV administered 30 min after SE onset (SE30) invariably led to transient hypothermia (FIG. 13A), which persisted at least 2 hrs. Mean decreases in body temperature (BT) of −2.5° C. and −3.6° C. were respectively recorded for SE30+ compound XIV animals as compared to SE animals (F=52.34; ***P<0.001). […] SE30+ compound XIV animals presented an average of stage 2 seizures or fewer during the rest of experiment. A subset of animals was administered i.p. a high dose of diazepam (DZP). […] Thus, administration of compound XIV at the dose of 4 mg/kg eq. […] This effect correlated with a −3 to −6° C. decrease in body temperature during ˜2.5 hours.
Using the anti-NeuN antibody and Fluoro-jade C that respectively label a neuronspecific nuclear protein and neuronal death, we observed a broad loss of CA1 and CA3 pyramidal cells as well as some dentate hilar neurons in the hippocampus of control SE animals (FIG. 14A, panel B), as compared to SHAM animals (FIG. 14A, panel A).
SE-induced gliosis involved microglia and astroglial cell types. We used GFAP and Iba1 immunolabeling to estimate the effect of compound XIV on neuroinflammation. In SHAM animals, a basal labeling for GFAP and Iba1 was detected in the HF (FIG. 14A, panel D). In SE animals, a very strong activation of glial cells occurred in all hippocampal layers (FIG. 14, panels E, H). […]

BBB (brain) = test system: BBB (brain); design: species or system C57Bl/6 mice; settings: mouse, in vivo
Method: (§1) Transport kinetics at the BBB and blood-retina barrier (BRB) of the conjugates of the invention was assessed using an in situ brain perfusion technique in adult male C57Bl/6 mice. Radiolabeled activated NT compounds were obtained either by coupling [3H]Tyr3-NT with the AG or by coupling a tritiated AG to NT molecules. NT was radiolabeled by catalytic dehalogenation of iodoTyr3-NT using tritium gas while AG was radiolabeled by coupling a tritiated propionyl succinimide ester to its N-terminus. The specific radioactivity (SRA) was typically in the range of 50 Ci/mmol. The total quantity of radioactivity prepared for each synthesis was generally between 100 and 1000 μCi.
(§2) The in situ brain perfusion technique enables total control of the composition of the artificial perfusate in order to maintain the cells and vascularization of the brain under normal physiological and anatomical conditions within the animal, without the disrupting factor of systemic distribution. […]
(§3) In situ brain perfusion of the radiolabeled compounds of the invention was performed during 120 s with a perfusate flow rate of 2 mL/min. The initial transport was expressed as the transfer coefficient Kin (relationship between distribution volume of the test compound, corrected for the vascular volume, and cerebral perfusion time).

[3] = test system: blood-retina barrier (BRB), eye; design: species or system C57Bl/6 mice; settings: mouse, in vivo
Method: as §1, §2, §3

[4] = administered 30 min after SE onset

CCC(=O)N[C@@H]1CSSC[C@@H](C(=O)NCCOCCOCCOCCOCCOCCOCCC(=O)N[C@@H](CCCNC(=N)N)C(=O)N[C@@H](CCCNC(=N)N)C(=O)N2CCC[C@H]2C(=O)N[C@@H](Cc2ccc(O)cc2)C(=O)N[C@H](C(=O)N[C@@H](CC(C)C)C(=O)O)[C@@H](C)CC)NC(=O)CN(C)C(=O)[C@H](CCCNC(=N)N)NC(=O)[C@H](CC(C)C)NC(=O)[C@H](CCCNC(=N)N)NC(=O)[C@@H]2CCCCN2C(=O)[C@H](CCSC)NC1=O [Compound XIV, Pr-cMPipRLRSarC-PEG6-RRPYIL-OH]
further decrease of body temperature ([1]; 6 mg/kg eq. NT i.v.): 4.7 °C | maximal antipyretic effect compared to Baseline 2 or saline ([1]; as of 2 mg/kg eq. NT i.v., 15 min post-injection): −2.2 °C | maximal decrease in body temperature, day 1 (Swiss (CD-1) mice; day 1, 45 min post-injection): −5.5 °C | mean decrease in body temperature, day 2 to day 4 (Swiss (CD-1) mice; day 2 to day 4, 30 min post-injection): −3 °C | decrease in body temperature ([2]; 4 mg/kg eq. NT i.v., during ~2.5 hours): −3 to −6 °C | mean decrease in body temperature compared to SE animals (second value) ([2]; 30 min after SE onset, second of two values, presumably 4 mg/kg eq. NT): −3.6 °C | glial inflammatory response in the hippocampus (GFAP, Iba1) compared with SE animals [2, 4]: significantly decreased | persistence of transient hypothermia [2, 4]: at least 2 hrs | seizure intensity compared with SE group [2, 4]: significant decrease of seizures | seizure stage (Racine) during the rest of the experiment [2, 4]: ≤ 2 stage | number of mossy fiber terminals innervating the IML (ZnT3) compared with SE animals ([2]; administered 30 min after SE onset, 8 weeks after SE): considerably reduced | neurodegeneration in the hippocampus (NeuN, Fluoro-jade C) compared with SE animals ([2]; administered 30 min after SE onset, one week later): significantly decreased | transfer coefficient Kin in the brain (BBB (brain)): 0.000365 mL/s/g | transfer coefficient Kin in the eye [3]: 0.00033 mL/s/g
